Laboratory results taken from patent US8304444B2, “Pyrazole carboxylic acid amides useful as microbiocides” (Syngenta Crop Protection, LLC, priority 2007, dated 2012).

Assays:
Type in all cases: cell-based
Septoria tritici = test: Action against Septoria tritici, fungal growth assay; conditions: Zymoseptoria tritici; 0.002% active ingredient, PDB broth, 24° C., photometric after 72 hrs
Procedure: (§1) Action Against Septoria tritici—Fungal Growth Assay Conidia of the fungus from cryogenic storage are directly mixed into nutrient broth (PDB potato dextrose broth). After placing a (DMSO) solution of the test compounds (0.002% active ingredient) into a microtiter plate (96-well format) the nutrient broth containing the fungal spores is added. The test plates are incubated at 24° C. and the inhibition of growth is determined photometrically after 72 hrs. The activity of a compound is expressed as fungal growth inhibition (0=no growth inhibition, ratings of 80% to 99% mean good to very good inhibition, 100%=complete inhibition). Compounds 1.01, 1.07, 1.14, 1.15, 1.76 and 2.01 show very good activity in this test (≦80% inhibition).

[1] = tested on: Pseudocercosporella herpotrichoides var. acuformis; test: Action against Pseudocercosporella herpotrichoides var. acuformis (eyespot/cereals), fungal growth assay; conditions: Oculimacula yallundae; 0.002% active ingredient, PDB broth, 24° C., photometric after 72 hrs
Procedure: as §1, with “Pseudocercosporella herpotrichoides var. acuformis (Eyespot/Cereals)—Fungal” for “Septoria tritici—Fungal”, “1.14” for “1.07, 1.14, 1.15, 1.76”, “1.15” for “2.01”, “(≦30%” for “(≦80%”

Monographella nivalis = test: Action against Monographella nivalis (snow mould), fungal growth assay; conditions: 0.002% active ingredient, PDB broth, 24° C., photometric after 72 hrs
Procedure: as §1, with “Monographella nivalis (Anamorph: Fusarium nivale, Microdochium nivale; Snow Mould)—Fungal” for “Septoria tritici—Fungal”, “DMSO-solution” for “(DMSO) solution”, “measured” for “determined”, “hrs” for “hrs. The activity of a compound is expressed as fungal growth inhibition”, “1.14” for “1.01, 1.07, 1.14, 1.15, 1.76”, “1.15” for “2.01”

Mycosphaerella arachidis = test: Action against Mycosphaerella arachidis, fungal growth assay; conditions: 0.002% active ingredient, PDB broth, 24° C., photometric after 6-7 days
Procedure: Action Against Mycosphaerella arachidis (Early Leaf Spot of Groundnut; Cercospora arachidicola [anamorph])—Fungal Growth Assay Conidia of the fungus from cryogenic storage are directly mixed into nutrient broth (PDB potato dextrose broth). After placing a (DMSO) solution of the test compounds (0.002% active ingredient) into a microtiter plate (96-well format) the nutrient broth containing the fungal spores is added. The test plates are incubated at 24° C. and the inhibition of growth is measured photometrically after 6-7 days. The activity of a compound is expressed as fungal growth inhibition (0=no growth inhibition, ratings of 80% to 99% mean good to very good inhibition, 100%=complete inhibition). Compounds 1.01, 1.14 and 1.15 show very good activity in this test (≦80% inhibition). Compounds 1.07 and 2.01 show good activity in this test (≦50% inhibition).

Structure (SMILES)	inhibition at 0.002 % strength (Septoria tritici) [%]	inhibition at 0.002 % strength [1] [%]	inhibition at 0.002 % strength (Monographella nivalis) [%]	inhibition at 0.002 % strength (Mycosphaerella arachidis) [%]
CONC(c1ccc(Cl)cc1Cl)C(C)NC(=O)c1cn(C)nc1C(F)F (centres unmarked) [Compound 1.76, 3-difluoromethyl-1-methyl-1H-pyrazole-4-carboxylic acid [2-(2,4-dichlorophenyl)-2-methoxyamino-1-methyl-ethyl]-amide]	≤ 80	–	–	–
COC(c1ccc(Cl)cc1Cl)C(C)NC(=O)c1cn(C)nc1C(F)F (centres unmarked) [Compound 1.14, 3-difluoromethyl-1-methyl-1H-pyrazole-4-carboxylic acid [2-(2,4-dichlorophenyl)-2-methoxy-1-methyl-ethyl]-amide]	≤ 80	≤ 30	≤ 80	≤ 80
